# Measurements from patent US20220112267A1, “PRODUCE AND ISOLATE AND/OR EXTRACT COLLAGEN AND/OR GELATIN FROM ANIMAL CELL LINES AND/OR TISSUE EXPLANTS” (Jellatech, Inc., priority 2020, published 2022).
# How the values were obtained:
# Type in all cases: cell-based
# various cell types = assay: Effects of ginseng, palmitoleic acid and spirulina on collagen production in various cell types (FIG. 8-10)
# Text: (§1) Moreover, FIG. 8 depicts a graph showing effects of ginseng on collagen production in various cell types. FIG. 8 has an x-axis 802 associated with a cell type and a ginseng concentration in μg/mL and a […] measuring a collagen concentration 806 and a protein concentration 808.
# (§2) Further, FIG. 9 depicts a graph showing effects of palmitoleic acid on collagen production in various cell types. FIG. 9 has an x-axis 902 associated with a cell type and a palmitoleic acid concentration in μg/mL and a y-axis 904 measuring a collagen concentration 906 and a protein concentration 908.
# (§3) FIG. 10 depicts a graph showing effects of a spirulina extract on collagen production in various cell types. FIG. 10 has an x-axis 1002 associated with a cell type and a spirulina extract concentration in μg/mL and a y-axis 1004 measuring a collagen concentration 1006 and a protein concentration 1008.
# (§4) However, a total protein content is increased in bovine cells.
# bovine cells [1] = assay: Effects of ginseng, palmitoleic acid and spirulina on total protein content in bovine cells (FIG. 8-10)
# Text: as §1, §2, §3, §4
# human KEL-FIB cell line = assay: Factor supplementation, Sircol Collagen Assay, human KEL-FIB cell line; details: for collagen production: 3-10 days with factor
# Procedure: (§5) In this embodiment, cells were seeded at approximately 3500-4500 cells per well of a 48 well-plate and were allowed to settle for about 48 hours before adding the factor. After about 48 hours, spent media was removed and replaced with growth media supplemented with the factor of interest. Cells continued to grow for about 3-10 days following initial introduction of the factor and a collagen content was quantified with a Sircol™ Collagen Assay. Additionally, experiments were conducted with and without media/factor replenishment about every 48-72 hours.
# human cells = assay: Collagen production under different concentrations of vitamin C, human cells (FIG. 7C, 7D); details: seeding density 40,000 or 70,000 cells/well, 96 well plate
# Text: (§6) In another example, a collagen detection method using a dual dye assay is described and depicted in FIG. 4. This method measures collagen content of samples using dyes in order to estimate collagen production of adherent cells in cultures without extracting the collagen. Samples may include bovine derma primary fibroblast cell lines or BJ human fibroblast/primary cells, among others not explicitly listed herein. Materials utilized in the method of FIG. 4 include: about 70% ethanol, sterile water, picric acid (or 2,4,6-trinitrophenol), about 0.1% Fast Green FCF solution in saturated picric acid, about 0.4% Fast Green FCF solution and about 0.11% Sirius Red in the saturated picric acid, and about 0.1% NaOH in methanol. The Fast Green FCF dye is used for total protein and the Sirius Red dye is used for collagen content determination. Equipment utilized with the method of FIG. 4 includes a laminar flow cabinet, a spectrophotometer, and a pipette. A process step 406 follows the process step 404 and includes adding a saturated solution of picric acid in distilled water containing a first amount of the Fast Green dye. In examples, the first amount of the Fast Green dye is about 0.01%. […] A process step 420 follows the process step 418 and includes utilizing the spectrophotometer to measure an absorbance at 540 nm and 630 nm. […]
# porcine cell line = assay: Factor supplementation, Sircol Collagen Assay, commercially available porcine cell line; details: 3-10 days with factor
# Procedure: as §5
# bovine cell lines = assay: Factor supplementation, Sircol Collagen Assay, commercially available bovine cell lines; details: for collagen production: commercially available bovine cell lines, 3-10 days with factor
# Procedure: as §5
# bovine cells [2] = assay: Collagen production under different concentrations of vitamin C, bovine cells (FIG. 7A, 7B); details: seeding density 40,000 or 70,000 cells/well, 96 well plate
# Text: as §6
Compound,effect on collagen production (various cell types),total protein content (bovine cells [1]),increase of collagen production (human KEL-FIB cell line),collagen production (human KEL-FIB cell line),concentration of vitamin C at which the highest collagen concentration resulted (human cells),collagen production (porcine cell line),increase of collagen production (bovine cell lines; bovine cell lines),collagen production (bovine cell lines),concentration of vitamin C at which the highest collagen concentration resulted (bovine cells [2])
CCCCCC/C=C\CCCCCCCC(=O)O [palmitoleic acid],do not have a large effect,increased,,,,,,,
O=C1O[C@H]([C@@H](O)CO)C(O)=C1O [vitamin C],,,about 50%,increased,10 to 100 mg/mL,increased,28-36%,increased,10 to 100 mg/mL
O=S(=O)([O-])[O-].[Zn+2] [zinc sulfate],,,,increased,,increased,,increased,
